Conditions: Liquid; for speed of sound: Pulse-echo method; for mass density: Vibrating tube method

CCCCC/C=C\C/C=C\CCCCCCCC(=O)OC [methyl (Z,Z)-9,12-octadecadienate]
Conditions | mass density, 293.15 K [kg/m3] | mass density, 303.15 K [kg/m3] | mass density, 313.15 K [kg/m3] | mass density, 323.15 K [kg/m3] | mass density, 333.15 K [kg/m3] | mass density, 343.15 K [kg/m3] | speed of sound, 283.15 K [m/s] | speed of sound, 303.15 K [m/s] | speed of sound, 323.15 K [m/s] | speed of sound, 343.15 K [m/s]
101.3 kPa | 885.2 | 877.7 | 870.9 | 863.7 | 856.3 | 849.1 | 1455 | 1382.9 | 1312.6 | 1245.1
10000 kPa | 891.2 | 884 | 877.1 | 870.1 | 863 | 856.2 | 1498.2 | 1428.9 | 1361.4 | 1297.9
20000 kPa | 896.6 | 889.6 | 882.9 | 876.3 | 869.5 | 863 | 1539 | 1472.2 | 1407.2 | 1346.9
30000 kPa | 901.8 | 895 | 888.5 | 882 | 875.4 | 869.3 | 1577.6 | 1513.6 | 1450.8 | 1392.6
40000 kPa | 906.8 | 900.1 | 893.7 | 887.3 | 881.3 | 875.1 | 1614.3 | 1552 | 1491.3 | 1435.4
50000 kPa | 911.4 | 905 | 898.8 | 892.4 | 886.5 | 880.8 | 1649.2 | 1588.6 | 1530.3 | 1475.1
60000 kPa | 915.9 | 909.5 | 903.3 | 897.4 | 891.5 | 885.9 | 1682.6 | 1623.5 | 1567.2 | 1513.2
70000 kPa | 920.2 | 914 | 908 | 902.1 | 896.4 | 890.9 | 1714 | 1656.3 | 1601.4 | 1549.4
80000 kPa | 924 | 918.1 | 912.2 | 906.7 | 900.9 | – | 1745.2 | 1688.3 | 1634.3 | –
90000 kPa | 928.2 | 922.2 | 916.6 | 910.9 | 905.4 | – | 1774.4 | 1719.1 | 1666.2 | –
100000 kPa | 931.3 | 926.2 | 920.6 | 915.1 | 910 | – | 1803.2 | 1748.7 | 1697.2 | –
110000 kPa | – | – | – | – | – | – | 1830.9 | 1776.9 | 1726.4 | –
120000 kPa | – | – | – | – | – | – | 1857.8 | 1804.4 | 1754.6 | –
130000 kPa | – | – | – | – | – | – | 1884.6 | 1831.3 | 1782.4 | –
140000 kPa | – | – | – | – | – | – | 1909.9 | 1857 | 1808.7 | –
150000 kPa | – | – | – | – | – | – | 1934.7 | 1883.6 | 1834.7 | –
170000 kPa | – | – | – | – | – | – | – | 1932.3 | 1884.5 | –
190000 kPa | – | – | – | – | – | – | – | 1979.7 | 1931.7 | –
210000 kPa | – | – | – | – | – | – | – | 2023.6 | 1977.6 | –
